Laboratory results as given in US11084783B2, “O-alkyl-benzylideneguanidine derivatives and therapeutic use for the treatment of disorders associated with an accumulation of misfolded proteins” (INFLECTIS BIOSCIENCE, priority 2014, dated 2021).

Tests used:
Format in all cases: cell-based
[1] = system: interferon-gamma injured rat oligodendrocytes; experiment: In vitro multiple sclerosis model: interferon-gamma injured rat oligodendrocytes co-cultured with neurons; conditions: interferon-gamma 70 U/ml, 48 H; total number of O4 cells
Procedure: Neurons/OPC were cultured as previously describes by Yang et al. (2005 J Neurosci Methods;149(1) pp50-6) with modifications. Briefly, the full brain (without cerebellum) obtained from 17-day old rat embryos (Wistar, Janvier labs) were removed. The full brains were treated for 20 min at 37° C. with a trypsin-EDTA (Pan Biotech) solution at a final concentration of 0.05% trypsin and 0.02% EDTA. The dissociation was stopped by addition of Dulbecco's modified Eagle's medium (DMEM) with 4.5 g/liter of glucose (Pan Biotech), containing DNAse I grade II (final concentration 0.5 mg/ml; Pan Biotech, Batch: h140508) and 10% fetal calf serum (FCS; Invitrogen, Batch: 41Q7218K). Cells were mechanically dissociated by three forced passages through the tip of a 10-ml pipette. Cells were then centrifuged at 515 g for 10 min at 4° C. The supernatant was discarded, and the pellet was resuspended in a defined culture medium consisting of Neurobasal medium (Invitrogen, Batch: 1636133) with a 2% solution of B27 supplement (Invitrogen, Batch: 1660670), 2 mmol/liter of L-glutamine (Pan Biotech), 2% of PS solution, and, 1% of FCS and 10 ng/ml of platelet derived growth factor (PDGF-AA, Batch: H131205). The cells were seeded at a density of 20 000 cells per well in 96 well plates precoated with PLL (BD corning, Batch: 6614022) and laminine (Sigma, Batch: 083M4034V). The plates were maintained at 37° C. into a humidified incubator, in an atmosphere of air (95%)-CO2 (5%). Half of the medium was changed every 2 days with fresh medium. On days 18, test compounds were pre-incubated 1 hour before interferon-gamma (70 U/ml, 48H, R&D system, Batch: AAL2214081) application.
On day 18 of culture, test compounds (4 concentrations) were solved in culture medium and then pre-incubated with oligodendrocyte co-cultured with neurons for 1 hour before the interferon-gamma (70 U/ml, 48H) application. […]
For each condition, 30 pictures per well were taken using ImageXpress (Molecular Device) with 20× magnification. […] All values were expressed as mean +/−SEM (s.e.mean) (n=6 wells per condition).

[2] = biological target: T1, human alpha2A receptor (Homo sapiens, UniProt P08913); experiment: Functional GPCR assay for adrenergic α2A receptor (CellKey detection method); conditions: agonist activity, CHO cells expressing human alpha2A receptor, impedance (CellKey); read-out: Functional adrenergic alpha2 receptor assay EC50
T1 construct: CHO cells endogenously expressing human alpha2A receptor; endogenous in cells; host or cells: CHO cells
T1 sequence (P08913 1-465): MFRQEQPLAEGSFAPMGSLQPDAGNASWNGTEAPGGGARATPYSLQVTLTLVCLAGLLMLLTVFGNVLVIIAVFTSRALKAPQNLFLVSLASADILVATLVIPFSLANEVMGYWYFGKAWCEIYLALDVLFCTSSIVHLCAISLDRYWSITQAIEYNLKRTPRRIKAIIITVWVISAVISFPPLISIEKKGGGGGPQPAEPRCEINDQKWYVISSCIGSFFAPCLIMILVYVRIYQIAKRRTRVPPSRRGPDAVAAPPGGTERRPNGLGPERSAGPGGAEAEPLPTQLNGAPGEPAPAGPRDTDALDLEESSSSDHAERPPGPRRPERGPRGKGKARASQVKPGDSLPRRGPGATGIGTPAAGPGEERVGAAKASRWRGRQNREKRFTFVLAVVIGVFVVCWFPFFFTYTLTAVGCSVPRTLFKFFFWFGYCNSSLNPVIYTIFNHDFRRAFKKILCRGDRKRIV
Procedure: The agonist activity of compounds was evaluated on CHO cells […] expressing human alpha2A receptor and was determined by measuring their effects on impedance modulation using the CellKey detection method. Cells were seeded onto 96-well plate at density of 6×10^4 cells/well in HBSS buffer (Invitrogen)+20 mM HEPES (Invitrogen) with 0.1% BSA and are allowed to equilibrate for 60 min at 28° C. before the start of the experiment. Plates were placed onto the system and measurements were made at a temperature of 28° C. Solutions were added simultaneously to all 96 wells using an integrated fluidics system: HBSS (basal control), reference agonist at 100 nM (stimulated control), reference agonist (EC50 determination) or the test compounds. Impedance measurements are monitored for 10 minutes after ligand addition. The standard reference agonist is epinephrine, which is tested in each experiment at several concentrations to generate a concentration-response curve from which its EC50 value is calculated.
Dose-response data from test compounds were analysed with Hill software using non-linear regression analysis of the concentration-response curves generated with mean replicate values using Hill equation curve fitting.

[3] = system: INS1 insulinoma cell; experiment: INS1 cell line cytoprotection from ER stress (tunicamycin); conditions: 6 hour exposure to tunicamycin 2.5 μg/mL, different concentrations, viability 72h
Procedure: Cells were plated in 96 well plates at a density of 0.5.10^6 cells/mL for Min6 cell line, 0,4.10^6 cells/mL for INS1 cell line the day before the treatment. ER stress was elicited by addition of 2.5 μg/mL tunicamycin (Sigma Aldrich) together with phosphatases inhibitors. Media were changed 6h later with fresh media and the cytoprotection was maintained by the addition of phosphatases inhibitors. Cell viability was assessed by measuring the reduction of WST-8 into formazan using Cell Counting Kit-8 (Sigma) according to the supplier's recommendation, 72h after tunicamycin treatment.

Structure (SMILES)	protection of interferon-gamma injured rat oligodendrocytes (FIG. 2) [1]	EC50 [2]	prevention of INS1 insulinoma cell death (FIG. 8) [3]
CCCONC(=N)N/N=C/c1ccccc1Cl [Compound 12, 2-(2-chlorobenzylidene)-N-propoxyhydrazinecarboximidamide]	dose dependent protection	> 33.3 µM	prevent INS1 insulinoma cell death
CCONC(=N)N/N=C/c1c(F)cccc1Cl [Compound 17, 2-(2-chloro-6-fluorobenzylidene)-N-ethoxyhydrazinecarboximidamide]	dose dependent protection	> 33.3 µM	prevent INS1 insulinoma cell death
CCONC(=N)N/N=C/c1c(Cl)cccc1Cl [Compound 11, 2-(2,6-dichlorobenzylidene)-N-ethoxyhydrazinecarboximidamide]	dose dependent protection	> 0.7 µM	prevent INS1 insulinoma cell death
CCO/N=C(\N)N/N=C/c1ccccc1Cl [Compound 10, 2-(2-chlorobenzylidene)-N′-ethoxyhydrazinecarboximidamide]		> 33.3 µM	
